The results in this text go back to publication PMC12040169 (PLOS Biology, 2025).

A word on the viability: it is a read-out of living cells in per cent, often relative to untreated cells.

A short description of this series: in vitro. Particulars: human, hela cells, % viability.
With `COc1cc(C(=O)N2CCC3(CC2)CC(=O)c2cc(NC(C)=O)ccc2O3)nc2c(OC)cccc12` [CBK170664], the viability at 28.5 h, 10 µM came out at 122%.
For `O=C(Cn1c(=O)cc(O)c2ccccc21)N1CCN(c2ccccn2)CC1` [CBK291117], the viability at 28.5 h, 10 µM stood at 94.4%.
To `CC(=O)N1CC[C@@H]2NC(=O)[C@H]3C[C@H](NC(=O)c4ccc(F)c(Cl)c4)CN3C(=O)[C@H]21` [CBK289270] belongs 87%; to `COCC(=O)NC(Cc1ccsc1)c1nc(C)cs1` (stereo not shown) [CBK282804], 99.5%; to `CC(=O)Nc1c[nH]nc1C1CCCN(c2cccc(F)c2C#N)C1` (stereo not shown) [CBK306401], 97.2%.
The result for `COc1cc(/C=C2\S/C(=N/c3ccc(S(N)(=O)=O)cc3)NC2=O)c(Br)cc1O` [CBK265711] reads 96.9%; that for `Cc1ccc(S(=O)(=O)N2CCN(CCCc3ccccc3)CC2)cc1` [CBK263453], 95.2%.
The result for `CC(=O)N1CCc2cc(C(=O)CN3CCC(c4ccccc4)C3)ccc21` (stereo not shown) [CBK282931] reads 98%.
As for `COc1ccccc1/C=C/CN1CCNC(=O)C1CC(=O)O` (stereo not shown) [CBK269845], the viability at 28.5 h, 10 µM is 100%.
Take `CCc1cnccc1C(=O)N1CCC(NC(=O)c2cnn(C)c2)CC1` [CBK305388]: the viability at 28.5 h, 10 µM was found to be 105%.
For `Cc1ccc(NC(=O)N2CCn3cccc3C2c2cccnc2)cc1` (stereo not shown) [CBK287733], the viability at 28.5 h, 10 µM came out at 87.1%.
The result for `Cc1ccc(C(=O)O)c(NC(=O)c2ccccc2F)c1` [CBK126744] reads 98.9%; that for `COc1ccc(-c2cc(C(=O)N[C@@H](C)c3ccccc3)cnc2-c2cccc(C)c2)cc1` [CBK036635], 105%; that for `CC(C)Nc1nccnc1-c1cccc(O)c1` [CBK037089], 97.3%.
`C=CCNS(=O)(=O)c1ccc(NC(=O)Nc2ccc(Cl)cc2)cc1` [CBK269315]: the viability at 28.5 h, 10 µM came out at 101%.
As to `COC(=O)CN1C(=O)S/C(=C/c2cc(C)n(-c3ccc4ncccc4c3)c2C)C1=O` [CBK265275], the viability at 28.5 h, 10 µM is 121%.
Turning to `O=C(CSc1nnc2scc(-c3ccccc3)n12)Nc1nsc(-c2ccc(Cl)cc2)n1` [CBK266576], the viability at 28.5 h, 10 µM turned out to be 95.4%.
On to `O=C(Nc1ccccc1N1CCNCC1)c1ccoc1` [CBK029442T], for which the viability at 28.5 h, 10 µM worked out at 96.2%.
To `N#C/C(=C\c1ccc(N2CCN(c3ccc(F)cc3)CC2)c([N+](=O)[O-])c1)c1nn(-c2ccccc2)c(N)c1C#N` [CBK267927] belongs 95.7%; to `Cc1c(Cl)cccc1CNC(=O)CC1SC(NCC2CCCCC2)=NC1=O` (stereo not shown) [CBK067017], 91.7%; to `Clc1ccc(CN2CCC(Oc3cncc(OCCN4CCOCC4)n3)C2)cc1` (stereo not shown) [CBK084480], 90.9%.
As to `O=C(CO)N1CC2(CCN(Cc3ccc(OC(F)(F)F)cc3)CC2)c2ccccc21` [CBK131493], the viability at 28.5 h, 10 µM came to 106%.
The result for `Cc1ccccc1C(=O)NCC(=O)Nc1ccc(Br)c2ccccc12` [CBK091343] reads 98%.
To `COc1cc(-c2ccc3ccc(=O)[nH]c3n2)cc(OC)c1OC` [CBK073721] belongs 98.8%; to `CC(C)[C@@H](CO)Nc1cncc(-c2cccc(CO)c2)n1` [CBK065427], 95.2%; to `COc1ccc(-c2ccc(CCC(=O)O)n2-c2ccc(N(C)C)cc2)cc1` [CBK131895], 110%.
The result for `O=S(=O)(Nc1nccnc1-c1cccs1)c1ccccc1Cl` [CBK050775] reads 94.9%; that for `COc1ccc(Sc2cccc(C(F)(F)F)n2)cc1OC` [CBK093769], 94%.
In the case of `O=C(Nc1cccnc1)c1cnc2cc(Cl)ccc2c1O` [CBK107353], the viability at 28.5 h, 10 µM was determined as 82.6%.
To `Cc1nc2c(-c3ccccc3)cnn2c(N2CCCC2)c1C` [CBK287799] belongs 89%; to `Cc1n[nH]c(C)c1CNC(=O)c1[nH]c2c(Cl)cccc2c1C` [CBK282534], 96%.
Regarding `CCCCn1nnnc1NCc1cccc(OC)c1OC` [CBK288091], the viability at 28.5 h, 10 µM stood at 104%.
As to `NCCNC(=O)c1cc2cc(OC(F)(F)F)ccc2[nH]1` [CBK107368], the viability at 28.5 h, 10 µM is 118%.
To `CC(Oc1ccc(F)cc1)C(=O)N1CCCc2c(cnn2C)C1` (stereo not shown) [CBK285230] belongs 82.1%; to `O=C(CC[C@@H]1CNC(=O)[C@@H]2C[C@H](NC(=O)c3cccc(F)c3)CN12)Nc1ccccc1` [CBK289008], 83.9%.
For the compound `Cc1cc(C(C)(C)C)cc(S(=O)(=O)Nc2ccc(C(=O)O)c(O)c2)c1C` [CBK299820], the viability at 28.5 h, 10 µM amounted to 88.3%.
Regarding `CCOC(=O)c1cnn2c(O)cc(CN3CCCc4ccccc43)nc12` [CBK305694], the viability at 28.5 h, 10 µM was determined as 118%.
The result for `Cc1ccc(S(=O)(=O)N2C(=O)CCC2C(=O)O/N=C(\N)c2cccnc2)cc1` (stereo not shown) [CBK266864] reads 111%; that for `O=C(c1cccc([N+](=O)[O-])c1)c1ccc2c(c1)C(=O)N(Cc1cccnc1)C2=O` [CBK262784], 80.1%; that for `c1ccc2c(c1)OCC(COc1ccnc(N3CCCN(CCc4ccc5ccccc5c4)CC3)n1)O2` (stereo not shown) [CBK083983], 90.7%.
Regarding `COc1ccc(C(NC(=O)C2CCN(C(=O)OCc3ccccc3)CC2)c2ccccc2C)cn1` (stereo not shown) [CBK059726], the viability at 28.5 h, 10 µM was 91.4%.
Take `O=C(Nc1nnc(-c2ccco2)o1)c1cccc(C(F)(F)F)c1` [CBK287422]: the viability at 28.5 h, 10 µM worked out at 88.6%.
To `COc1cccc(NC(=O)C2CCCCC2C(=O)O)c1` (stereo not shown) [CBK262410] belongs 93.1%; to `CC(OC(=O)c1ccc2nccnc2c1)c1cccc([N+](=O)[O-])c1` (stereo not shown) [CBK297901], 78.5%.
To `O=C(c1ccco1)N1CCC[C@@H]1Cn1c(=O)oc2ccccc21` [CBK284538] belongs 87.6%; to `O=C(CN1C(=O)c2ccccc2C1=O)Nc1nc(-c2ccccc2)cs1` [CBK287343], 106%.
For the compound `Cc1cc(NC(=O)c2ccc3c(c2)OCO3)nc2c1c(=O)oc1ccccc12` [CBK291121], the viability at 28.5 h, 10 µM worked out at 117%.
With `CN(C)CCN(C)S(=O)(=O)c1ccc(C(C)(C)C)cc1` [CBK059035T], the viability at 28.5 h, 10 µM worked out at 94.7%.
The result for `CC1CN(C(=O)NC2CCCCC2)C(c2ccccc2)ON1C` (stereo not shown) [CBK026650] reads 109%.
For `O=C(c1ccc(COc2ccccc2Cl)o1)N1CCN(Cc2ccc3c(c2)OCO3)CC1` [CBK265750C], the viability at 28.5 h, 10 µM was found to be 87.3%.
The result for `Fc1ccc([C@@H]2COC[C@H]2NCc2ccsc2)cc1` [CBK282598] reads 100%; that for `CS(=O)(=O)c1ccc(-c2ccc3ccc(=O)[nH]c3n2)cc1` [CBK073719], 86.7%; that for `Fc1cccc2sc(Nc3nc(-c4cccs4)cs3)nc12` [CBK287476], 85.9%.
On to `O=C(CC(C(=O)O)c1c[nH]c2ccccc12)c1ccc(Cl)cc1` (stereo not shown) [CBK286620], for which the viability at 28.5 h, 10 µM came out at 86.7%.
The result for `Fc1ccc(OCc2nn3cnnc3s2)cc1` [CBK287288] reads 102%; that for `COc1cccc2sc(Nc3nc(-c4cccnc4)cs3)nc12` [CBK287470], 98.5%; that for `Cn1ccnc1C1(O)CCN(C(=O)Cc2ccccc2F)CC1` [CBK283585], 97.6%.
To `O=C1Nc2ccc(-c3ccsc3)cc2C(=O)N2CC[C@H](NC(=O)N3CCOCC3)[C@@H]12` [CBK289338] belongs 109%.
As for `c1cnc(-c2ccoc2)c(NCCCN2CCOCC2)n1` [CBK036631], the viability at 28.5 h, 10 µM is 95.3%.
As for `O=C(O)CCn1c(-c2ccc(F)cc2)cc2cccnc21` [CBK282583], the viability at 28.5 h, 10 µM is 84.4%.
Consider `Cc1ccc(CNC(=O)C2(c3ccccc3)CCCC2)cc1F` [CBK161529], for which the viability at 28.5 h, 10 µM was 85.6%.
To `CN(C)CCCOC(=O)C(C)(c1ccccc1)c1ccccc1` [CBK265325C] belongs 118%; to `O=C(NCCCn1ccnc1)c1ncoc1-c1cccs1` [CBK282404], 92.7%; to `O=C(COc1ccc2ccccc2c1)Nc1ccc(Cl)cc1Cl` [CBK263598], 106%.
`CCN(CC(=O)N1CCN(C(=O)c2ccc(C)cc2)CC1)C(=O)OC` [CBK027051]: the viability at 28.5 h, 10 µM was 82%.
To `c1ccc(CNc2c(-c3ccco3)nc3cnccn23)cc1` [CBK283933] belongs 90.6%; to `O=C(NCCNC(=O)c1ccccn1)c1ccccn1` [CBK265654], 101%.
The result for `Cc1nc2c(c(=O)[nH]1)CN(Cc1c[nH]c3ccccc13)CC2` [CBK282327] reads 102%; that for `O=C(O)c1cc(S(=O)(=O)N2CCOCC2)c(Cl)cc1NC1CCCCC1` [CBK264576], 97.8%.
The result for `O=[N+]([O-])c1ccc(Cl)c(C2N(Cc3ccccc3)CCN2Cc2ccccc2)c1` [CBK261601] reads 93.4%; that for `O=C(Nc1ccccc1)N(O)CC(O)COc1ccccc1` (stereo not shown) [CBK288399], 90.7%; that for `Cc1n[nH]c(C)c1CNC(=O)c1cc2ccc(F)cc2[nH]1` [CBK283147], 89.4%.
On to `CCn1ncc(CN(C)C(=O)CCC2CCCCN2C)c1C` (stereo not shown) [CBK307329], for which the viability at 28.5 h, 10 µM turned out to be 116%.
The result for `Cc1ccc(C(=O)C(OC(=O)COc2ccccc2C)c2ccccc2)cc1C` (stereo not shown) [CBK265512] reads 85.3%.
The result for `COc1ccc(N2CCN(CC(=O)Nc3ccc(Cl)cc3C(=O)c3ccccc3)CC2)cc1` [CBK265743] reads 90.7%; that for `CC(=O)NC(c1ccccn1)C1CCN(C(=O)C2CCCCC2)CC1` (stereo not shown) [CBK285049], 98%.
For `COc1ccc2c(c1)CCN=C2C[C@H]1CN(C(=O)C(C)(C)C)CC[C@H]1CC(=O)O` [CBK289155], the viability at 28.5 h, 10 µM turned out to be 92.5%.
For `COC(=O)C(CCSC)NC(=O)c1ccc(C(F)(F)F)cc1` (stereo not shown) [CBK057452], the viability at 28.5 h, 10 µM is 91.9%.
The result for `O=C(Nc1ccc(N2CCCC2)c(F)c1)C1CC(=O)N(C2CC2)C1` (stereo not shown) [CBK281461] reads 100%.
